Like-named read-outs stand apart in the source and are kept apart here. One block for each compound: values may come before it.
How the values were obtained:
[1] = Mouse intravenous (IV) pharmacokinetic study of plasma and brain exposure with bioanalysis; format: in vivo; settings: for Kp / half-life: male, NMRI, iv, 1 mg/kg; for Kp: brain/plasma
Experimental: A pharmacokinetic study of plasma and brain exposure in mice after IV administration of Example Compound 1 or Comparative Example Compound 1 was carried out following the protocol described in Loryan, I., et al, Pharm Res (2014) 31: 2203-2219. Comparative Example Compound 1 is 2-{2-Fluoro-6-[4-(hydroxymethyl)piperidin-1-yl]pyridin-3-yl}-1H-indol-5-ol, and has the following structure:
The experimental protocol and bioanalysis described in Loryan, I., et al, Pharm Res (2014) 31: 2203-2219 was followed to measure mouse plasma and brain exposure. Table 3 below provides specific details of the mice, sampling, dose, formulation, method and additional information regarding the experiment, and Table 4 below provides further information regarding the sampling in the experiment.

[2] = target: recombinant 0N4R Tau fibrils (Homo sapiens (Human), UniProt P10636); assay: 3H-THK5117 competition binding to tau fibrils in vitro; settings: competition with 3 nM [3H]-THK5117, 0N4R tau fibrils, 1 h, 22° C.; average if run more than once
Sequence of recombinant 0N4R Tau fibrils (P10636 other isoform, or with tags, fused parts or gaps): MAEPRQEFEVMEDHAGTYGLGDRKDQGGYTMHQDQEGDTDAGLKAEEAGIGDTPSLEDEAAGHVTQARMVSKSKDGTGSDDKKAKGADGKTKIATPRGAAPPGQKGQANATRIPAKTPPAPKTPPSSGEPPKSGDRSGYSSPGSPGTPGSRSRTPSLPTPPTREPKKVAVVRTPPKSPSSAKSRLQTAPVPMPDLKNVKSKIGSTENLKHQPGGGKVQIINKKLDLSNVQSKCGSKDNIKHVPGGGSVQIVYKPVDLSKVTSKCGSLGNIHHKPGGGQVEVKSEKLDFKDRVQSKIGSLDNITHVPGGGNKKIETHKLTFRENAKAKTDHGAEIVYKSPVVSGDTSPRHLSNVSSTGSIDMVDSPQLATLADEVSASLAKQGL
Experimental: ^3H-THK5117 Competition Binding to Tau Fibrils In Vitro
Preparation of recombinant 0N4R Tau fibrils was performed as previously described in Morozova, O. A., Biochemistry (2013), Vol., 52(40), pages 6960-6967. Competition binding experiments to 0N4R Tau fibrils were performed by incubating increasing concentrations [10^−10-10^−6 M] of the Example compounds of the invention, or the known tau specific ligand PBB3 (PBB3 was synthesized as previously described in M. Maruyama, et al, Neuron 2013, 79, 1094-1108) or MK6240 (Novandi Chemistry AB), in the presence of 3 nM of the known tau ligand [^3H]-THK5117 (Novandi Chemistry) and 0.2 mM 0N4R tau fibrils in binding buffer (50 mM Tris-HCl, pH 7.4, 0.1% BSA) for 1 h in the dark, and at 22° C. The incubation was terminated by filtration through a Whatman GF/B glass filter (Whatman International, Kent, UK) using a Brandel cell harvester. The filter was then washed rapidly four times with 3 mL of ice-cold wash buffer (5 mM Tris-HCl, 0.25 mM NaCl, 5% EtOH), and equilibrated for 1 h in scintillation vials containing 5 mL of Ultima Gold scintillation fluid before being analysed using a Liquid Scintillation Analyzer.
The results are shown in Table 2 in the column labeled “Tau IC50”. […] Biological Assay Results

[3] = cited from earlier work
[4] = mouse, mouse, IV 1 mg/kg, read-out: Total concentration brain:plasma ratio
[5] = mouse, mouse, IV 1 mg/kg, read-out: Unbound concentration brain:plasma ratio
[6] = mouse, mouse, IV 1 mg/kg, read-out: unbound AUC in brain as % of the plasma AUC
[7] = brain, mouse NMRI male, IV 1 mg/kg, mean n=3
[8] = plasma, mouse NMRI male, IV 1 mg/kg, mean n=3

Total concentration AUC ([1]; brain, mouse, IV 1 mg/kg): 15 ng·h/g
Unbound concentration AUC ([1]; brain, mouse, IV 1 mg/kg): 0.030 ng·h/g
Kp [1, 4]: 0.1
Kp [1, 5]: 0.002
Kp [1, 6]: ~0.002
Total concentration AUC ([1]; plasma, mouse, IV 1 mg/kg): 151 ng·h/g
Unbound concentration AUC ([1]; plasma, mouse, IV 1 mg/kg): 14 ng·h/g
Compound: OCC1CCN(c2ccc(-c3cc4cc(O)ccc4[nH]3)c(F)n2)CC1 [Comparative Example Compound 1, 2-{2-Fluoro-6-[4-(hydroxymethyl)piperidin-1-yl]pyridin-3-yl}-1H-indol-5-ol, reference compound]

AUCinf [1, 7]: 457.8 ng·h/g
AUClast [1, 7]: 454.6 ng·h/g
Cmax [1, 7]: 1190 ng/g
Tmax [1, 7]: 1.8 min
Total concentration AUC ([1]; brain, mouse, IV 1 mg/kg): 457.8 ng·h/g
Unbound concentration AUC ([1]; brain, mouse, IV 1 mg/kg): 0.09 ng·h/g
half-life ([1]; mouse, brain, brain, following IV dosing, mouse, read-out: elimination half-life (converted)): ~18 min
half-life ([1]; mouse, brain, brain, mouse NMRI male, IV 1 mg/kg, mean n=3, read-out: t1/2 (converted)): 18 min
Kp [1, 4]: 1.7
Kp [1, 5]: 0.56
Kp [1, 6]: ~0.56
half-life ([1]; mouse, plasma, plasma, mouse NMRI male, IV 1 mg/kg, mean n=3, read-out: t1/2 (converted)): 24 min
AUC(0-inf) [1, 8]: 267 ng·h/mL
AUC(0-t) [1, 8]: 264 ng·h/mL
C0 [1, 8]: 884 ng/mL
Cmax [1, 8]: 782 ng/mL
MRT [1, 8]: 18 min
Tmax [1, 8]: 1.8 min
Vd [1, 8]: 1.2 L/kg
clearance [1, 8]: 62.4 mL/min/kg
Total concentration AUC ([1]; plasma, mouse, IV 1 mg/kg): 267.1 ng·h/g
Unbound concentration AUC ([1]; plasma, mouse, IV 1 mg/kg): 0.16 ng·h/g
IC50 [2]: 1.7 nM
Compound: CO[C@H]1CCCN(c2ccc(-c3cc4cc(O)ccc4[nH]3)c(F)n2)C1 [Example Compound 1, 2-{2-Fluoro-6-[(3S)-3-methoxypiperidin-1-yl]pyridin-3-yl}-1H-indol-5-ol]
adverse events in the mice during the study ([1]; mouse, IV 1 mg/kg): No adverse events were observed

IC50 [2]: 31.8 nM
Compound: CO[C@@H]1CCCN(c2ccc(-c3cc4cc(O)ccc4[nH]3)c(F)n2)C1 [Example Compound 2, 2-{2-Fluoro-6-[(3R)-3-methoxypiperidin-1-yl]pyridin-3-yl}-1H-indol-5-ol]

Compound: [11CH3]Nc1ccc(/C=C/C=C/c2nc3ccc(O)cc3s2)cn1 [^11C-PBB3]
radiochemical purity after exposure to fluorescent light ([3]; 1 min after exposure): 77%
radiochemical purity after exposure to fluorescent light ([3]; from 10 to 60 min after exposure): approximately 50%

— patent US12304901B2, “Selective ligands for tau aggregates” (Sentonix, Inc., priority 2022, dated 2025)
